Like-named read-outs stand apart in the source and are kept apart here.
Experiments:
NUGC3 p53 Y220C = assay: Cell Proliferation Assay (CellTiter-Glo, CTG), NUGC3 p53 Y220C; type: cell-based; conditions: Homo sapiens, NUGC-3, 120 h, 5 days
Summary of the method: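 Tet-One inducible p53 Y220C or R273H constructs were stably introduced into NCI-H1299 by lentiviral transduction; NUGC3 was used as is. Cells (250-500 per well) were exposed to compound for 5 days, then CellTiter-Glo was added for 10 min at room temperature and IC50 was calculated from luminescence.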

[1] = biological target: T1, p53 Y220C mutant protein (amino acid residues 94-293) (Homo sapiens, UniProt P04637, Y220C); assay: Surface Plasmon Resonance (SPR) assay, Kd_kinetic; type: binding; conditions: SPR, p53 Y220C, read-out: SPR P53 Y220C KD kinetic
T1 construct: p53 Y220C mutant protein (amino acid residues 94-293)
Summary of the method: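 Biacore 8K SPR; 16 or 20 °C; Tris 50 mM pH 7.5, NaCl 100 mM, DTT 1 mM, Brij35 0.01%, Tween-20 0.05%, DMSO 1%. Kd_kinetic by 1:1 fit.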

H1299 p53 Y220C = assay: Cell Proliferation Assay (CellTiter-Glo, CTG), H1299 p53 Y220C (NClH1299-inducible p53 Y220C); type: cell-based; conditions: Homo sapiens, NCI-H1299, 120 h, 5 days
Summary of the method: (§1)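 NClH1299 lines stably transduced with Tet-inducible p53 Y220C or R273H, plus NUGC3, were treated with compound for 5 days at 250-500 cells/well. IC50 derived from CellTiter-Glo luminescent signal after 10 min room-temperature incubation.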

H1299 p53 R273H = assay: Cell Proliferation Assay (CellTiter-Glo, CTG), H1299 p53 R273H (NClH1299-inducible p53 R273H); type: cell-based; conditions: Homo sapiens, NCI-H1299, 120 h, 5 days
Summary of the method: as §1

p53 Y220C = p53 Y220C (Homo sapiens, UniProt P04637, Y220C); assay: Luciferase Reporter Assay (Luc), p53 response element, NClH1299 cells with inducible p53 Y220C; type: cell-based; conditions: 6 hour; for AC50: read-out: Luc P53 Y220C AC50
Summary of the method: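 Cells were seeded at 5,000 per well and induced with 0.5 ug/mL doxycycline for 24 hours, then exposed to compound for 6 hours. One-Glo reagent was added, plates shaken 5 minutes at room temperature, and luminescence read immediately.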

[2] = NClH1299-inducible p53 Y220C cells, CellTiter-Glo
[3] = NClH1299-inducible p53 R273H cells, CellTiter-Glo
[4] = AC50, luciferase reporter, NClH1299 inducible p53 Y220C
[5] = Emax, luciferase reporter, NClH1299 inducible p53 Y220C
[6] = luciferase reporter, NClH1299 inducible p53 Y220C, 10 uM tool compound as positive control
[7] = luciferase reporter, NClH1299 inducible p53 Y220C

T1 sequence (P04637 94-293, stated change not applied): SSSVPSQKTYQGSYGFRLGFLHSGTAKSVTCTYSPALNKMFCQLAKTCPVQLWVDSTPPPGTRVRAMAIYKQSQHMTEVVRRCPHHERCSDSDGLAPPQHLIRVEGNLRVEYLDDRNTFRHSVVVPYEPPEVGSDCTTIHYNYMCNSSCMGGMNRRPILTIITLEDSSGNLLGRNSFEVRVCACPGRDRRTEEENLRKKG

Row | SMILES | IC50 (NUGC3 p53 Y220C; NUGC3 cells, CellTiter-Glo) [nM] | Kd [1] [nM] | IC50 (H1299 p53 Y220C; [2]) [nM] | IC50 (H1299 p53 R273H; [3]) [µM] | AC50 (p53 Y220C; [4]) [nM] | Emax (p53 Y220C; [5]) [%] | IC50 (NUGC3 p53 Y220C; CellTiter-Glo, NUGC3 p53 Y220C) [nM] | Kd ([1]; kinetic KD) [nM] | IC50 (H1299 p53 Y220C; CellTiter-Glo, H1299 p53 Y220C) [nM] | IC50 (H1299 p53 R273H; CellTiter-Glo, H1299 p53 R273H) [µM] | Emax (p53 Y220C; [6]) [%] | AC50 (p53 Y220C; [7]) [nM] | IC50 (NUGC3 p53 Y220C; NUGC3 cells) [nM] | IC50 (H1299 p53 Y220C; NClH1299-inducible p53 Y220C cells) [nM] | IC50 (H1299 p53 R273H; NClH1299-inducible p53 R273H cells) [µM] | AC50 (p53 Y220C; AC50, NClH1299 cells with inducible p53 Y220C) [nM] | Emax (p53 Y220C; Emax, NClH1299 cells with inducible p53 Y220C, 10 uM tool compound as positive control) [%]
1 | CNS(=O)(=O)c1ccc(OC)c(NCC#Cc2cc3c(N[C@@H]4CCN(C)C[C@@H]4F)nccn3c2SC(F)F)c1 [Example 334] | > 3000 | 10 to 100 | 1500 to 3000 | ≥ 10 | > 3000 | 80 to 90 | – | – | – | – | – | – | – | – | – | – | –
2 | CNC(=O)c1ccc(NCC#Cc2nc3c(N[C@@H]4CCS(=O)(=O)C4)cccn3c2SC(F)(F)F)c(OC)c1 [Example 230] | 1500 to 3000 | 10 to 100 | 1500 to 3000 | ≥ 10 | 1500 to 3000 | 80 to 90 | – | – | – | – | – | – | – | – | – | – | –
3 | CNC(=O)c1ccc(OC)c(NCC#Cc2cc3c(N[C@@H]4CCN(C[C@H](C)O)C[C@@H]4F)nccn3c2SC(F)(F)F)c1 [Example 448] | < 750 | < 10 | < 750 | 5 to 8 | < 750 | > 90 | – | – | – | – | – | – | – | – | – | – | –
4 | O=C(NC[C@H]1COCCO1)c1ccc(NCC#Cc2cc3c(N[C@@H]4CCNC[C@@H]4F)cccn3c2SC(F)(F)F)cc1 [Example 369] | < 750 | < 10 | < 750 | 5 to 8 | < 750 | > 90 | – | – | – | – | – | – | – | – | – | – | –
5 | CN1CC[C@@H](Nc2cccn3c(SC(F)(F)F)c(C#CCNc4ccc(P(C)(C)=O)cn4)cc23)[C@@H](F)C1 [Example 428, 2-(3-{[5-(dimethylphosphoryl)pyridin-2-yl]amino}prop-1-yn-1-yl)-N-[(3S,4R)-3-fluoro-1-methylpiperidin-4-yl]-3-[(trifluoromethyl)sulfanyl]indolizin-8-amine] | < 750 | < 10 | < 750 | ≥ 10 | < 750 | 80 to 90 | – | – | – | – | – | – | – | – | – | – | –
6 | CNC(=O)c1ccc(OC)c(NCC#Cc2nc3c(N[C@@H]4C[C@@H]5CC[C@H]4N5C)cccn3c2SC(F)(F)F)c1 [Example 249] | 750 to 1500 | < 10 | 750 to 1500 | 5 to 8 | 750 to 1500 | < 70 | – | – | – | – | – | – | – | – | – | – | –
7 | C[C@H](O)CNC(=O)c1ccc(NCC#Cc2cc3c(N[C@@H]4CCNC[C@@H]4F)cccn3c2SC(F)(F)F)cc1 [Example 403] | < 750 | < 10 | < 750 | ≥ 10 | < 750 | > 90 | – | – | – | – | – | – | – | – | – | – | –
8 | COc1cc(C(=O)N2CC(C)(O)C2)ccc1NCC#Cc1cc2c(N[C@@H]3CCNC[C@@H]3F)cccn2c1SC(F)(F)F [Example 406, 1-(4-{[3-(8-{[(3S,4R)-3-fluoropiperidin-4-yl]amino}-3-[(trifluoromethyl)sulfanyl]indolizin-2-yl)prop-2-yn-1-yl]amino}-3-methoxybenzoyl)-3-methylazetidin-3-ol] | < 750 | < 10 | < 750 | 5 to 8 | < 750 | 80 to 90 | – | – | – | – | – | – | – | – | – | – | –
9 | CNC(=O)c1ccc(C#N)c(NCC#Cc2nc3c(N[C@@H]4CCN(C)C[C@@H]4F)cccn3c2SC(F)(F)F)c1 [Example 224] | < 750 | < 10 | < 750 | ≥ 10 | < 750 | > 90 | – | – | – | – | – | – | – | – | – | – | –
10 | CNC(=O)c1cnc(OC)c(NCC#Cc2cc3c(N[C@@H]4CNC[C@@H]4F)nccn3c2SC(F)(F)F)c1 [Example 313] | 750 to 1500 | < 10 | 750 to 1500 | ≥ 10 | 750 to 1500 | 80 to 90 | – | – | – | – | – | – | – | – | – | – | –
11 | CNC(=O)c1ccc(NCC#Cc2nc3c(NC4CCS(=O)(=O)C4)cccn3c2SC(F)(F)F)c(OC)c1 (single isomer, unassigned) [Example 322] | 750 to 1500 | 10 to 100 | 750 to 1500 | ≥ 10 | 750 to 1500 | > 90 | – | – | – | – | – | – | – | – | – | – | –
12 | COc1cc(C(=O)NCC2(O)CC2)ccc1NCC#Cc1cc2c(N[C@@H]3CCN(C)C[C@@H]3F)cccn2c1SC(F)(F)F [Example 419, 4-{[3-(8-{[(3S,4R)-3-fluoro-1-methylpiperidin-4-yl]amino}-3-[(trifluoromethyl)sulfanyl]indolizin-2-yl)prop-2-yn-1-yl]amino}-N-[(1-hydroxycyclopropyl)methyl]-3-methoxybenzamide] | < 750 | < 10 | < 750 | 5 to 8 | < 750 | > 90 | – | – | – | – | – | – | – | – | – | – | –
13 | CN1CC[C@@H](Nc2cccn3c(SC(F)(F)F)c(C#CCNc4ccc(C(=O)NCC5(O)CC5)cc4)cc23)[C@@H](F)C1 [Example 427] | < 750 | < 10 | < 750 | ≥ 10 | < 750 | > 90 | – | – | – | – | – | – | – | – | – | – | –
14 | CNC(=O)c1ccc(NCC#Cc2cc3c(N[C@@H]4CCN(C)C[C@@H]4F)cccn3c2SC(F)(F)F)c(C(F)F)c1 [Example 450, 3-(difluoromethyl)-4-{[3-(8-{[(3S,4R)-3-fluoro-1-methylpiperidin-4-yl]amino}-3-[(trifluoromethyl)sulfanyl]indolizin-2-yl)prop-2-yn-1-yl]amino}-N-methylbenzamide] | < 750 | < 10 | < 750 | ≥ 10 | < 750 | > 90 | – | – | – | – | – | – | – | – | – | – | –
15 | CNC(=O)c1cnc(OC)c(NCC#Cc2nc3c(N[C@@H]4CCN(C)C[C@@H]4F)cccn3c2SC(F)F)c1 [Example 278] | < 750 | < 10 | < 750 | < 5 | < 750 | 70 to 80 | – | – | – | – | – | – | – | – | – | – | –
16 | CNC(=O)c1c[nH]nc1NCC#Cc1nc2c(N[C@@H]3CCN(C)C[C@@H]3F)cccn2c1SC(F)(F)F [Example 198] | – | – | – | – | – | – | < 750 | < 10 | < 750 | ≥ 10 | 80 to 90 | < 750 | – | – | – | – | –
17 | CNC(=O)c1ccc(O)c(NCC#Cc2cc3c(N[C@@H]4CCNC[C@@H]4F)cccn3c2SC(F)(F)F)c1 [Example 477, 3-{[3-(8-{[(3S,4R)-3-fluoropiperidin-4-yl]amino}-3-[(trifluoromethyl)sulfanyl]indolizin-2-yl)prop-2-yn-1-yl]amino}-4-hydroxy-N-methylbenzamide] | – | < 10 | – | – | – | – | – | – | – | – | – | – | < 750 | < 750 | ≥ 10 | < 750 | 80 to 90
18 | CNC(=O)c1ccc(N[C@@H](C)C#Cc2nc3c(N[C@@H]4CCN(C)C[C@@H]4F)cccn3c2SC(F)(F)F)c(OC)c1 [Example 134] | – | – | – | – | – | – | > 3000 | 10 to 100 | > 3000 | 5 to 8 | 70 to 80 | > 3000 | – | – | – | – | –
19 | COc1cc(C(N)=O)ccc1NCC#Cc1nn2c(N[C@@H]3CCN(C)C[C@@H]3F)cccc2c1SC(F)F [Example 286] | < 750 | < 10 | < 750 | ≥ 10 | < 750 | > 90 | – | – | – | – | – | – | – | – | – | – | –
20 | COc1ccc(C(=O)NCC2(O)CC2)cc1NCC#Cc1cc2c(N[C@@H]3CCN(C)C[C@@H]3F)cccn2c1SC(F)(F)F [Example 417] | < 750 | < 10 | < 750 | ≥ 10 | < 750 | > 90 | – | – | – | – | – | – | – | – | – | – | –
21 | CNC(=O)c1ccc(NCC#Cc2nn3c(N[C@@H]4CCN(C)C[C@@H]4F)nccc3c2SC(F)(F)F)c(OC)c1 [Example 214, 4-{[3-(7-{[(3S,4R)-3-fluoro-1-methylpiperidin-4-yl]amino}-3-[(trifluoromethyl)sulfanyl]pyrazolo[1,5-c]pyrimidin-2-yl)prop-2-yn-1-yl]amino}-3-methoxy-N-methylbenzamide] | – | – | – | – | – | – | < 750 | < 10 | < 750 | ≥ 10 | > 90 | < 750 | – | – | – | – | –

Source: patent US20260374766A1, “METHODS FOR TREATING CANCER” (Antares Therapeutics, Inc., priority 2022, published 2026)
